Each structure is given as a SMILES string.

The target of the experiment is T1, USP7 (Homo sapiens, UniProt Q93009, C315A).
T1 construct: 0.25 nM His-His-USP7 (aa208-560, [C315A]) was incubated with compound; His-His (N)
T1 sequence (Q93009 208-560 C315A): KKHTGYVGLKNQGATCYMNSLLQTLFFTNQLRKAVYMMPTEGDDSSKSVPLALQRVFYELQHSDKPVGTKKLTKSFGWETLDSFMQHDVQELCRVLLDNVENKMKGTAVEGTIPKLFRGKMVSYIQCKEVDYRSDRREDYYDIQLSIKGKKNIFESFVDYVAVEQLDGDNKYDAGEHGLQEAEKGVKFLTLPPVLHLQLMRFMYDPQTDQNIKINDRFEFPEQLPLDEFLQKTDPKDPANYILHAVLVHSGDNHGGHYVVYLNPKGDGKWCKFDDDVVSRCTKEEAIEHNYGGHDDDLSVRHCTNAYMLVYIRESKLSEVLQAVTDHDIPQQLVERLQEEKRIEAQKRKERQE
Briefly: Inhibition of USP7 by Fluorescence Intensity (FLINT) readings, Ubiquitin-Rhodamine-110 substrate. The experiment is classed as biochemical. To be noted: 0.25 nM His-His-USP7 (aa208-560, [C315A]); compound 60 minutes at 30° C.; 500 nM Ubiquitin-Rhodamine substrate; 11-point curves. As for the experimental part:
USP7 activity was measured using Rhodamine-110 c-terminal labelled Ubiquitin as a substrate (Viva Biosciences). Incubation with USP7 results in the release of Rhodamine-110 leading to an increase in fluorescence which can be used in the continuous measurement of USP7 activity.
The USP7 reactions were performed in a 50 μL volume, in 384 well black solid low binding plates (Corning #3575). The reaction buffer consisted of 100 mM Bicine pH 8.0, 0.01% TritonX 100, 1 mM TCEP, and 10% DMSO.
0.25 nM His-His-USP7 (aa208-560, [C315A]) was incubated with compound (final concentration 10% DMSO) for 60 minutes at 30° C. The reaction was then initiated by the addition of 500 nM Ubiquitin-Rhodamine-10 substrate and the plate read every 3 minutes for 21 minutes to measure the release of Rhodamine-110. Fluorescence Intensity (FLINT) readings were measured using a Biomek Neo plate reader (Ex. 485 nm. Em. 535 nm).
The inhibition of increasing doses of compound was expressed as a percentage reduction in kinetic rate compared to the kinetic rates established between ‘DMSO only’ and ‘total inhibition’ controls (no USP7). The inhibitory concentrations that gave a 50% reduction in kinetic rate (IC50) were determined, from 11-point dose response curves, in XL-Fit using a 4-Parameter Logistic Model (Sigmoidal Dose-Response Model).
A word on the IC50: it is the concentration needed to halve the response being measured. `COc1ccc(-n2ccc3c(=O)n(CC4(O)CCN(C(=O)[C@@H]5CCCC[C@H]5n5cccc5)CC4)cnc32)cc1` (single isomer, unassigned) [Example 16, 3-[[4-hydroxy-1-[trans-2-pyrrol-1-ylcyclohexanecarbonyl]-4-piperidyl]methyl]-7-(4-methoxyphenyl)pyrrolo[2,3-d]pyrimidin-4-one] came in with an IC50 of 2970 nM. Take `CC(C)n1ccc2c(=O)n(CC3(O)CCN(C(=O)[C@@H]4CCC(F)(F)C[C@H]4c4ccccc4)CC3)cnc21` (single isomer, unassigned) [Example 113, 3-[[1-[trans-4,4-difluoro-2-phenyl-cyclohexanecarbonyl]-4-hydroxy-4-piperidyl]methyl]-7-isopropyl-pyrrolo[2,3-d]pyrimidin-4-one]: the IC50 amounted to 456 nM. Molecule `O=C([C@@H]1CCO[C@H]1c1ccccc1)N1CCC(O)(Cn2cnc3c(ccn3-c3ccccc3)c2=O)CC1` (relative stereo) [Example 46, 3-[[4-hydroxy-1-[trans-2-phenyltetrahydrofuran-3-carbonyl]-4-piperidyl]methyl]-7-phenyl-pyrrolo[2,3-d]pyrimidin-4-one] returned a half-maximal inhibitory concentration (IC50) of 685 nM.

Turning to `O=C([C@@H]1CCC(F)(F)C[C@H]1c1ccsc1)N1CCC(O)(Cn2cnc3c(-c4ccccc4)scc3c2=O)CC1` (single isomer, unassigned) [Example 88, 3-[[1-[trans-4,4-difluoro-2-(3-thienyl)cyclohexanecarbonyl]-4-hydroxy-4-piperidyl]methyl]-7-phenyl-thieno[3,4-d]pyrimidin-4-one], half-maximal inhibition (IC50) was put at 310 nM.

`COc1ccc(-n2ccc3c(=O)n(CC4(O)CCN(C(=O)[C@@H]5CCCO[C@H]5c5ccccc5)CC4)cnc32)cc1` (single isomer, unassigned) [Example 45, 3-[[4-hydroxy-1-[trans-2-phenyltetrahydropyran-3-carbonyl]-4-piperidyl]methyl]-7-(4-methoxyphenyl)pyrrolo[2,3-d]pyrimidin-4-one] registered an IC50 of 86 nM. `COc1ccc(-n2ccc3c(=O)n(CC4(O)CCN(C(=O)C5C(C)=CCCC5c5cccs5)CC4)cnc32)cc1` (single isomer, unassigned) [Example 60, 3-[[4-hydroxy-1-[trans-2-methy-6-(2-thienyl)cyclohex-2-ene-1-carbonyl]-4-piperidyl]methyl]-7-(4-methoxyphenyl)pyrrolo[2,3-d]pyrimidin-4-one] came in with an IC50 of 725 nM.

`O=C([C@@H]1CCC(F)(F)C[C@H]1c1cscn1)N1CCC(O)(Cn2cnc3c(-c4ccccc4)scc3c2=O)CC1` (single isomer, unassigned) [Example 82, 3-[[1-[trans-4,4-difluoro-2-thiazol-4-yl-cyclohexanecarbonyl]-4-hydroxy-4-piperidyl]methyl]-7-phenyl-thieno[3,4-d]pyrimidin-4-one] had an IC50 of 10100 nM. For `COc1ccc(-n2ccc3c(=O)n(CC4(O)CCN(C(=O)[C@@H]5CCCO[C@H]5c5ccccc5)CC4)cnc32)cc1` (single isomer, unassigned) [Example 44, 3-[[4-hydroxy-1-[trans-2-phenyltetrahydropyran-3-carbonyl]-4-piperidyl]methyl]-7-(4-methoxyphenyl)pyrrolo[2,3-d]pyrimidin-4-one], the IC50 was found to be 2750 nM. `COc1ccc(C(=O)Nc2ccc3ncn(CC4(O)CCN(C(=O)[C@@H]5CCCC[C@H]5c5ccccc5)CC4)c(=O)c3n2)cc1` (relative stereo) [Example 107, N-[3-[[4-hydroxy-1-(trans-2-phenylcyclohexanecarbonyl)-4-piperidyl]methyl]-4-oxo-pyrido[3,2-d]pyrimidin-6-yl]-4-methoxy-benzamide] came in with an IC50 of 102 nM. Molecule `O=C([C@@H]1OCCO[C@@H]1c1ccccc1)N1CCC(O)(Cn2cnc3c(ccn3-c3ccccc3)c2=O)CC1` (single isomer, unassigned) [Example 6, 3-[[4-hydroxy-1-[cis-3-phenyl-1,4-dioxane-2-carbonyl]-4-piperidyl]methyl]-7-phenyl-pyrrolo[2,3-d]pyrimidin-4-one] had an IC50 of 28000 nM. On to `O=C([C@@H]1CCCO[C@H]1c1ccccc1)N1CCC(O)(Cn2cnc3c(ccn3-c3ccccc3)c2=O)CC1` (single isomer, unassigned) [Example 26, 3-[[4-hydroxy-1-[trans-2-phenyltetrahydropyran-3-carbonyl]-4-piperidyl]methyl]-7-phenyl-pyrrolo[2,3-d]pyrimidin-4-one], for which the IC50 amounted to 67 nM. Compared with the last molecule, the IC50 is about 420-fold lower. Consider `COc1ccc(-n2ccc3c(=O)n(CC4(O)CCN(C(=O)[C@@H]5OCCO[C@@H]5c5ccccc5)CC4)cnc32)cc1` (single isomer, unassigned) [Example 7, 3-[[4-hydroxy-1-[cis-3-phenyl-1,4-dioxane-2-carbonyl]-4-piperidyl]methyl]-7-(4 methoxyphenyl)pyrrolo[2,3-d]pyrimidin-4-one], for which the IC50 was 6500 nM.

`COc1ccc(-n2ccc3c(=O)n(CC4(O)CCN(C(=O)[C@@H]5C(C)=CCC[C@H]5c5ccsc5)CC4)cnc32)cc1` (single isomer, unassigned) [Example 61, 3-[[4-hydroxy-1-[trans-2-methyl-6-(3-thienyl)cyclohex-2-ene-1-carbonyl]-4-piperidyl]methyl]-7-(4-methoxyphenyl)pyrrolo[2,3-d]pyrimidin-4-one] registered an IC50 of 72.3 nM. Regarding `COc1ccc(-n2ccc3c(=O)n(CC4(O)CCN(C(=O)[C@@H]5CCC(F)(F)C[C@H]5c5cccs5)CC4)cnc32)cc1` (single isomer, unassigned) [Example 73, 3-[[1-[trans-4,4-difluoro-2-(2-thienyl)cyclohexanecarbonyl]-4-hydroxy-4-piperidyl]methyl]-7-(4-methoxyphenyl)pyrrolo[2,3-d]pyrimidin-4-one], the IC50 turned out to be 83.8 nM. On to `O=C([C@@H]1CCC(F)(F)C[C@H]1c1cocn1)N1CCC(O)(Cn2cnc3c(-c4ccc(CO)cc4)scc3c2=O)CC1` (relative stereo) [Example 77, 3-[[1-[trans-4,4-difluoro-2-oxazol-4-yl-cyclohexanecarbonyl]-4-hydroxy-4-piperidyl]methyl]-7-[4-(hydroxymethyl)phenyl]thieno[3,4-d]pyrimidin-4-one], for which inhibition was half-maximal at 591 nM (IC50). `O=C([C@@H]1CCC(F)(F)C[C@H]1c1cscn1)N1CCC(O)(Cn2cnc3c(-c4ccccc4)scc3c2=O)CC1` (single isomer, unassigned) [Example 83, 3-[[1-[trans-4,4-difluoro-2-thiazol-4-yl-cyclohexanecarbonyl]-4-hydroxy-4-piperidyl]methyl]-7-phenyl-thieno[3,4-d]pyrimidin-4-one]: inhibition was half-maximal at 632 nM (IC50).

For the molecule `COc1ccc(-n2ccc3c(=O)n(CC4(O)CCN(C(=O)[C@@H]5CCCC[C@H]5n5ccnc5)CC4)cnc32)cc1` (single isomer, unassigned) [Example 48, 3-[[4-hydroxy-1-[trans-2-imidazol-1-ylcyclohexanecarbonyl]-4-piperidyl]methyl]-7-(4-methoxyphenyl)pyrrolo[2,3-d]pyrimidin-4-one], half-maximal inhibition (IC50) required 413 nM. `COc1ccc(-n2ccc3c(=O)n(CC4(O)CCN(C(=O)[C@@H]5OCCO[C@@H]5c5ccccc5)CC4)cnc32)cc1` (single isomer, unassigned) [Example 8, 3-[[4-hydroxy-1-[cis-3-phenyl-1,4-dioxane-2-carbonyl]-4-piperidyl]methyl]-7-(4-methoxyphenyl)pyrrolo[2,3-d]pyrimidin-4-one] returned an IC50 of 13300 nM. The result for `O=C([C@@H]1CC(F)(F)CC[C@H]1c1ccccc1)N1CCC(O)(Cn2cnc3c(-c4ccccc4)scc3c2=O)CC1` (single isomer, unassigned) [Example 79, 3-[[1-[trans-5,5-difluoro-2-phenyl-cyclohexanecarbonyl]-4-hydroxy-4-piperidyl]methyl]-7-phenyl-thieno[3,4-d]pyrimidin-4-one] reads 60.1 nM; that for `O=C(Nc1ccc2ncn(CC3(O)CCN(C(=O)[C@@H]4CCCC[C@H]4c4ccccc4)CC3)c(=O)c2n1)C1CCOC1` (relative stereo) [Example 101, N-[3-[[4-hydroxy-1-(trans-2-phenylcyclohexanecarbonyl)-4-piperidyl]methyl]-4-oxo-pyrido[3,2-d]pyrimidin-6-yl]tetrahydrofuran-3-carboxamide], 99.6 nM; that for `O=C([C@@H]1CC(F)(F)CC[C@H]1c1ccccc1)N1CCC(O)(Cn2cnc3c(-c4ccccc4)scc3c2=O)CC1` (single isomer, unassigned) [Example 78, 3-[[1-[trans-5,5-difluoro-2-phenyl-cyclohexanecarbonyl]-4-hydroxy-4-piperidyl]methyl]-7-phenyl-thieno[3,4-d]pyrimidin-4-one], 10300 nM. Regarding `COc1ccc(CNc2ccc3ncn(CC4(O)CCN(C(=O)[C@@H]5CCCC[C@H]5c5ccccc5)CC4)c(=O)c3n2)cc1` (relative stereo) [Example 94, 3-[[4-hydroxy-1-(trans-2-phenylcyclohexanecarbonyl)-4-piperidyl]methyl]-6-[(4-methoxyphenyl)methylamino]pyrido[3,2-d]pyrimidin-4-one], the IC50 came out at 351 nM. This IC50 lies about 29-fold lower than the previous one.

The values are drawn from patent US11332472B2, “Substituted piperidines as inhibitors of ubiquitin specific protease 7” (LES LABORATOIRES SERVIER, priority 2017, dated 2022).
